Measured values taken from patent publication US20250066350A1, “AROMATIC HETEROCYCLE-SUBSTITUTED COMPOUNDS, AND PREPARATION METHOD THEREFOR AND USE THEREOF” (Innovstone Therapeutics Limited, priority 2021, published 2025).
Where two headings read alike, the source gives them in different places.

Experiments:
ATR enzyme = ATR enzyme (Homo sapiens (Human), UniProt Q13535); experiment: Inhibitory effect on ATR enzyme (HTRF, phospho-P53); type: biochemical; conditions: 90 minutes incubation, 150 nM ATP final; read-out: IC50 for ATR enzyme inhibition
Sequence of ATR enzyme (Q13535 whole entry): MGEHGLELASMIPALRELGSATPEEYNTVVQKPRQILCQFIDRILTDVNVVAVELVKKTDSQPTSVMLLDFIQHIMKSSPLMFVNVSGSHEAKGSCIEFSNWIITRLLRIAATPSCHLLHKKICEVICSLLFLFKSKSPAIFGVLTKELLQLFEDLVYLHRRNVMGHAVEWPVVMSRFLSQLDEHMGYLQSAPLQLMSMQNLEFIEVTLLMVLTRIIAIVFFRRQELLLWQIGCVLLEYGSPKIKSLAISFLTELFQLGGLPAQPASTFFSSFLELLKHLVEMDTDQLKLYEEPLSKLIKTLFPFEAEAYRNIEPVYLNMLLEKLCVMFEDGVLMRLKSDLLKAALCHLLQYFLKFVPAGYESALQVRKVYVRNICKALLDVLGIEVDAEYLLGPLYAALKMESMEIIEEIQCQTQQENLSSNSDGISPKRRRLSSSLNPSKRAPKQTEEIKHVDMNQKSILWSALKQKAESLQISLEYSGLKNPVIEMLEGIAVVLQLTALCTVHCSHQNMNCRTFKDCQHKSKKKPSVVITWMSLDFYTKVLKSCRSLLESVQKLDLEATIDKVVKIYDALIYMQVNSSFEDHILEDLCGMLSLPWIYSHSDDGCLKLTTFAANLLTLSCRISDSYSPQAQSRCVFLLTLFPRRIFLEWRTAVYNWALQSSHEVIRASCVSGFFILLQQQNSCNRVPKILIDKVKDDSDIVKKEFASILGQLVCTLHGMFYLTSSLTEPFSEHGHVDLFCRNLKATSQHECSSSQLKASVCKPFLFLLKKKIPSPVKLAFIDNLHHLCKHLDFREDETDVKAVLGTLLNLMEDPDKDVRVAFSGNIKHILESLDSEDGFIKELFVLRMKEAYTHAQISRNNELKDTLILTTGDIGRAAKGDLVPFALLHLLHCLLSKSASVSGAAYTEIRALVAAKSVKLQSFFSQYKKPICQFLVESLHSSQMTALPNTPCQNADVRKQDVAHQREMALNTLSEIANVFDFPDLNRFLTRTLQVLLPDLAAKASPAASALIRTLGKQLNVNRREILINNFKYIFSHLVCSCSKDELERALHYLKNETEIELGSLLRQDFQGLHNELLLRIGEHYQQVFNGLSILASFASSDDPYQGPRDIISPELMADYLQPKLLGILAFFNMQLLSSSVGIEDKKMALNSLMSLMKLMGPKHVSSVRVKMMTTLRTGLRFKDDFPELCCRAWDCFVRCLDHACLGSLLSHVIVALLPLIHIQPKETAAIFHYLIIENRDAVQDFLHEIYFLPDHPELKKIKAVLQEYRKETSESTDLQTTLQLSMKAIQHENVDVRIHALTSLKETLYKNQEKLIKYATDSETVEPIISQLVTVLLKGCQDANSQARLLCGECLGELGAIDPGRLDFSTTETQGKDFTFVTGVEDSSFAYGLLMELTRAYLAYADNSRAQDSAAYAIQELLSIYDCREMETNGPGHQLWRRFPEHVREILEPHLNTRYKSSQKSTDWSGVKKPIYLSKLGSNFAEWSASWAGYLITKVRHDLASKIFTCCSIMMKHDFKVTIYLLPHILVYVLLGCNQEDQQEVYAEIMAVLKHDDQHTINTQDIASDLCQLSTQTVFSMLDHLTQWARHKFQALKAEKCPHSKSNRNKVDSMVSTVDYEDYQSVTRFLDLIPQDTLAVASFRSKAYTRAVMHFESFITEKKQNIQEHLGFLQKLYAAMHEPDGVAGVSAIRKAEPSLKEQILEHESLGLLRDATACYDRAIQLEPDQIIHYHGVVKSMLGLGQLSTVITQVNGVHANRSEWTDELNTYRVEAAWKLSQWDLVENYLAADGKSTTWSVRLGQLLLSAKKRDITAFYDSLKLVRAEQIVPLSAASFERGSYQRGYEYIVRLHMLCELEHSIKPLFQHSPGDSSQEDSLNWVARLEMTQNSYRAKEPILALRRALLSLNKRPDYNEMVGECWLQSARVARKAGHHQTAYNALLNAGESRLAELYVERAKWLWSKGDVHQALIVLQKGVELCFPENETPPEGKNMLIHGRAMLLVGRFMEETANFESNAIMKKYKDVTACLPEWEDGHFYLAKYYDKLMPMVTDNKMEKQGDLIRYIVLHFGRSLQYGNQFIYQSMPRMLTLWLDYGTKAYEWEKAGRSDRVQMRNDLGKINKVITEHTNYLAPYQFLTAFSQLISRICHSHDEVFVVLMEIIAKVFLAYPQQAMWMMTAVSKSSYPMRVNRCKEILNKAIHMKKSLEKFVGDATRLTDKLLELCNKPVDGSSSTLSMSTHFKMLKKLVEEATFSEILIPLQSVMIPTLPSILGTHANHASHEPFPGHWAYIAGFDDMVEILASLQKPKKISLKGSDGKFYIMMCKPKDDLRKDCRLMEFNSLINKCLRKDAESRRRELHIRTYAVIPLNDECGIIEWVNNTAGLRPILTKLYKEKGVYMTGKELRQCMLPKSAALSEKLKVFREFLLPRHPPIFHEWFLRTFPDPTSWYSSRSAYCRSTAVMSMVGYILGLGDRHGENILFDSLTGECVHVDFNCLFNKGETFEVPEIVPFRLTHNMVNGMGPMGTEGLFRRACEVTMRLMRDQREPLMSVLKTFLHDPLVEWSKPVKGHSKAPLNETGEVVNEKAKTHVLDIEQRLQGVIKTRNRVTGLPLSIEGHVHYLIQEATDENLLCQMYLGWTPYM
Sequence of ATR enzyme (Q8WXE1 whole entry partner): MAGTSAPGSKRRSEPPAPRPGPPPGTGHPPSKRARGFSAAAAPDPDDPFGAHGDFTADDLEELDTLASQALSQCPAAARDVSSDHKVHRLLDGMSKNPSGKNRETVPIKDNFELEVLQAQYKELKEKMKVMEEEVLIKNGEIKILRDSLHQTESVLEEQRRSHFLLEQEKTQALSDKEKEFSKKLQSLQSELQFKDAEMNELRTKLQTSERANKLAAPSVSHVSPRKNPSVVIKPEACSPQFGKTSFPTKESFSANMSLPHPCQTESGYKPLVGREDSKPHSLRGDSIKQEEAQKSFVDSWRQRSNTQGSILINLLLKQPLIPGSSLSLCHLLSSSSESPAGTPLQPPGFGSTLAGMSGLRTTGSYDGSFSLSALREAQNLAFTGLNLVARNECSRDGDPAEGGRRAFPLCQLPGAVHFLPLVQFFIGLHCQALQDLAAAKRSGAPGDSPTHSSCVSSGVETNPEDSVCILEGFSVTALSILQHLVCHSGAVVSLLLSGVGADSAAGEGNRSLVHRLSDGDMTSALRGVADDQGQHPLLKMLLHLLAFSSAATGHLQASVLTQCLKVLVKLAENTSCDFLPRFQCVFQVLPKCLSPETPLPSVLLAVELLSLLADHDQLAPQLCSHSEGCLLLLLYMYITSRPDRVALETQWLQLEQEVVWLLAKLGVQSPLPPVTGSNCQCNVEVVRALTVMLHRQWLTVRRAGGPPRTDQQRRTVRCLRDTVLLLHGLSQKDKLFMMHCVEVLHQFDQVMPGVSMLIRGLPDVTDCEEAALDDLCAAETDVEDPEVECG
Protocol: Test Example 1. Inhibitory Effect of Compounds of the Present Invention on ATR Enzyme
The following method is used to determine the inhibitory effect of the compounds of the present invention on the ATR enzyme. The experimental method is briefly described as follows:
1. ATR enzyme (Eurofins Pharma Discovery Services, 14-953M)
2. GST-tagged P53 protein (Eurofins Pharma Discovery Services, 14-952M)
15 nM ATR enzyme, 80 nM P53 protein, 300 nM ATP (the final concentrations were 40 nM and 150 nM, respectively), and small molecule compounds of various concentrations (the final concentrations (nM) of the ten points were 2985.0, 895.5, 298.5, 110.56, 33.17, 11.06, 4.09, 1.23, 0.41 and 0.15, respectively, and the final dimethyl sulfoxide concentration was 0.498%) were mixed and incubated at room temperature for 90 minutes. 10 μL of 2× cocktail buffer was added to the mixture of ATR, compound and substrate in the assay plate (anti-phospho-p53-Eu and anti-GST-d2 were diluted in the assay buffer). The resulting mixture was centrifuged at 1000 rpm for 30 seconds, and incubated overnight at 4° C. in the dark (a total of 20 μl in each well). The FRET signal (endpoint) was measured in the Envision instrument (HTRF 665/612 ratio was calculated at 665 nm emission and 612 nm emission). Data were processed using GraphPad software.
The inhibitory activity of the compounds of the present invention on the ATR enzyme can be determined by the test described above, and the measured IC50 values are shown in Table 1.

SNU-601 cells = experiment: SNU-601 cell proliferation experiment (CellTiter-Glo, intracellular ATP); type: cell-based; conditions: SNU-601 human gastric cancer cells, 5 days, read-out: IC50 for inhibition of SNU-601 cell proliferation
Protocol: The following method is used to evaluate the inhibitory effect of the compounds of the present disclosure on SNU-601 cell proliferation according to the IC50 values by means of detecting the intracellular ATP content. The experimental method is briefly described as follows:
1. SNU-601, human gastric cancer tumor cells (Co-bioer, CBP60507)
SNU-601 cells were cultured in RPMI 1640 medium containing 10% FBS and passaged 2 to 3 times a week at a split ratio of 1:5 or 1:10. During passage, the cells were trypsinized and transferred to a centrifuge tube. The tube was centrifuged at 1000 rpm for 5 minutes, the supernatant medium was discarded, and fresh medium was added to resuspend the cells. 195 μL of cell suspension at a density of 5.128×10^3 cells/mL was added to a 96-well cell culture plate, and 200 μL of complete medium only was added to the periphery wells of the 96-well plate. The culture plate was incubated in an incubator for 24 hours (37° C., 5% CO2).
The sample to be tested was diluted to 2 mM with DMSO, diluted 3-fold serially to 10 concentrations. Blank and control wells were set. 10 μL of the solution containing the compound to be tested prepared in gradient concentrations was added to 50 μL of fresh medium. 5 μL of the above culture medium solution containing the compound was added to the culture plate. The culture plate was incubated in an incubator for 5 days (37° C., 5% CO2). 50 μL of CellTiter-Glo reagent was added to each well of the 96-well cell culture plate after discarding 100 μL/well, and the plate was shaken at room temperature in the dark for 10 min. The chemiluminescent signal values were read in PHERAstar, and data were processed using GraphPad software.
The inhibitory effect of the compounds of the present invention on SNU-601 cell proliferation can be determined by the test described above, and the measured IC50 values are shown in Table 3.

Compound: C[C@@H]1COCCN1c1cc(-c2ccc(N3C(=O)C4C=CC3C4)cc2F)c2cnn(-c3cc[nH]n3)c2n1 (stereo partly drawn) [Example 262]
- IC50 (ATR enzyme): ≤ 10 nM
- IC50 (SNU-601 cells; 120 h): 10 to 100 nM

Compound: C[C@@H]1COCCN1c1cc(N2CC(NC(=O)C3CCC3)C2)c2cnn(-c3cc[nH]n3)c2n1 [Example 265]
- IC50 (ATR enzyme): 10 to 50 nM
- IC50 (SNU-601 cells; 120 h): 10 to 100 nM

Compound: C[C@@H]1COCCN1c1cc(-c2c(F)cc(N3CCCCC3=O)cc2F)c2cnn(-c3cc[nH]n3)c2n1 [Example 240]
- IC50 (ATR enzyme): ≤ 10 nM
- IC50 (SNU-601 cells; 120 h): 10 to 100 nM

Compound: CC(=O)C(=O)Nc1ccc(-c2cc(N3CCOC[C@H]3C)nc3c2cnn3-c2cc[nH]n2)cc1 [Example 31, (R)-N-(4-(6-(3-methylmorpholino)-1-(1H-pyrazol-3-yl)-1H-pyrazolo[3,4-b]pyridin-4-yl)phenyl)-2-oxopropanamide]
- IC50 (ATR enzyme): ≤ 10 nM
- IC50 (SNU-601 cells; 120 h): 10 to 100 nM

Compound: C[C@@H]1COCCN1c1cc(-c2cccc(N3CCCC3=O)c2)c2cnn(-c3cc[nH]n3)c2n1 [Example 58]
- IC50 (ATR enzyme): ≤ 10 nM
- IC50 (SNU-601 cells): 10 to 100 nM

Compound: Cc1cc(NC(=O)N2CCCC2)cc(C)c1-c1cc(N2CCOC[C@H]2C)nc2c1cnn2-c1cc[nH]n1 [Example 251]
- IC50 (ATR enzyme): ≤ 10 nM
- IC50 (SNU-601 cells; 120 h): 10 to 100 nM

Compound: C[C@@H]1COCCN1c1cc(-c2ccc(NC(=O)C3CC(N)C3)cc2)c2cnn(-c3cc[nH]n3)c2n1 (stereo partly drawn) [Example 158]
- IC50 (ATR enzyme): ≤ 10 nM
- IC50 (SNU-601 cells): 10 to 100 nM

Compound: C[C@@H]1COCCN1c1cc(-c2ccc(NC(=O)c3cccs3)cc2)c2cnn(-c3cc[nH]n3)c2n1 [Example 172]
- IC50 (ATR enzyme): ≤ 10 nM
- IC50 (SNU-601 cells): 10 to 100 nM

Compound: CC1CCCN1C(=O)Nc1ccc(-c2cc(N3CCOC[C@H]3C)nc3c2cnn3-c2cc[nH]n2)cc1 (stereo partly drawn) [Example 246]
- IC50 (ATR enzyme): ≤ 10 nM
- IC50 (SNU-601 cells; 120 h): 10 to 100 nM

Compound: C[C@@H]1COCCN1c1cc(-c2ccc(NC(=O)C3CCOC3)cc2)c2cnn(-c3cc[nH]n3)c2n1 (stereo partly drawn) [Example 154]
- IC50 (ATR enzyme): ≤ 10 nM
- IC50 (SNU-601 cells): 10 to 100 nM

Compound: CC(=O)N1CCCC(C(=O)Nc2ccc(-c3cc(N4CCOC[C@H]4C)nc4c3cnn4-c3cc[nH]n3)cc2)C1 (stereo partly drawn) [Example 162]
- IC50 (ATR enzyme): ≤ 10 nM
- IC50 (SNU-601 cells): 10 to 100 nM

Compound: C[C@@H]1COCCN1c1cc(-c2ccc(N3C(=O)C4CCC3CC4)cc2F)c2cnn(-c3cc[nH]n3)c2n1 [Example 264]
- IC50 (ATR enzyme): ≤ 10 nM
- IC50 (SNU-601 cells; 120 h): 10 to 100 nM

Compound: C[C@@H]1COCCN1c1cc(-c2ccc(N3CCCC3=O)cc2F)c2cnn(-c3cc[nH]n3)c2n1 [Example 59, (R)-1-(3-fluoro-4-(6-(3-methylmorpholino)-1-(1H-pyrazol-3-yl)-1H-pyrazolo[3,4-b]pyridin-4-yl)phenyl)pyrrolidin-2-one]
- IC50 (ATR enzyme): ≤ 10 nM
- IC50 (SNU-601 cells; 120 h): ≤ 10 nM

Compound: CCN1CCN(c2ccc(-c3cc(N4CCOC[C@H]4C)nc4c3cnn4-c3cc[nH]n3)cc2)C1=O [Example 216]
- IC50 (ATR enzyme): ≤ 10 nM
- IC50 (SNU-601 cells): 10 to 100 nM

Compound: C[C@@H]1COCCN1c1cc(-c2ccc(NC(=O)C3CC3)cc2)c2cnn(-c3cc[nH]n3)c2n1 [Example 218]
- IC50 (ATR enzyme): ≤ 10 nM
- IC50 (SNU-601 cells; 120 h): 10 to 100 nM

Compound: CCC(=O)Nc1ccc(-c2cc(N3CCOC[C@H]3C)nc3c2cnn3-c2cc[nH]n2)cc1 [Example 150]
- IC50 (ATR enzyme): ≤ 10 nM
- IC50 (SNU-601 cells): 10 to 100 nM

Compound: CCn1ccn(-c2ccc(-c3cc(N4CCOC[C@H]4C)nc4c3cnn4-c3cc[nH]n3)cc2)c1=O [Example 222]
- IC50 (ATR enzyme): ≤ 10 nM
- IC50 (SNU-601 cells; 120 h): 10 to 100 nM

Compound: C[C@@H]1COCCN1c1cc(-c2ccc(N3CCCNC3=O)cc2)c2cnn(-c3cc[nH]n3)c2n1 [Example 146]
- IC50 (ATR enzyme): ≤ 10 nM
- IC50 (SNU-601 cells): 10 to 100 nM

Compound: C[C@@H]1COCCN1c1cc(-c2ccc(NC(=O)C3CCC3)cc2)c2cnn(-c3cc[nH]n3)c2n1 [Example 32, (R)-N-(4-(6-(3-methylmorpholinyl)-1-(1H-pyrazolyl-3-yl)-1H-pyrazolyl[3,4-b]pyridin-4-yl)phenyl)cyclobutanecarboxamide]
- IC50 (ATR enzyme): ≤ 10 nM
- IC50 (SNU-601 cells; 120 h): 10 to 100 nM

Compound: C[C@@H]1COCCN1c1cc(-c2ccc(N3C(=O)C4CCC3C4)cc2F)c2cnn(-c3cc[nH]n3)c2n1 (stereo partly drawn) [Example 263]
- IC50 (ATR enzyme): ≤ 10 nM
- IC50 (SNU-601 cells; 120 h): 10 to 100 nM

Compound: C[C@@H]1COCCN1c1cc(-c2ccc(NC(=O)C3CC(O)C3)cc2)c2cnn(-c3cc[nH]n3)c2n1 (stereo partly drawn) [Example 160]
- IC50 (ATR enzyme): ≤ 10 nM
- IC50 (SNU-601 cells): 10 to 100 nM

Compound: C[C@@H]1COCCN1c1cc(-c2ccc(N3CCCCC3=O)cc2F)c2cnn(-c3cc[nH]n3)c2n1 [Example 238]
- IC50 (ATR enzyme): ≤ 10 nM
- IC50 (SNU-601 cells; 120 h): 10 to 100 nM

Compound: C[C@@H]1COCCN1c1cc(-c2ccc(NC(=O)C(F)F)cc2F)c2cnn(-c3cc[nH]n3)c2n1 [Example 236]
- IC50 (ATR enzyme): ≤ 10 nM
- IC50 (SNU-601 cells; 120 h): 10 to 100 nM

Compound: CC(=O)Nc1cccc(-c2cc(N3CCOC[C@H]3C)nc3c2cnn3-c2cc[nH]n2)c1 [Example 149]
- IC50 (ATR enzyme): ≤ 10 nM
- IC50 (SNU-601 cells; 120 h): 10 to 100 nM

Compound: C[C@@H]1COCCN1c1cc(-c2ccc(N3CC4CCC(O4)C3=O)nc2)c2cnn(-c3cc[nH]n3)c2n1 (stereo partly drawn) [Example 255]
- IC50 (ATR enzyme): ≤ 10 nM
- IC50 (SNU-601 cells; 120 h): 10 to 100 nM

Compound: C[C@@H]1COCCN1c1cc(-c2ccc(NC(=O)C(F)F)cc2)c2cnn(-c3cc[nH]n3)c2n1 [Example 217]
- IC50 (SNU-601 cells; 120 h): 10 to 100 nM

Compound: CCC(=O)Nc1ccc(-c2cc(N3CCOC[C@H]3C)nc3c2cnn3-c2cc[nH]n2)c(F)c1 [Example 233]
- IC50 (ATR enzyme): ≤ 10 nM
- IC50 (SNU-601 cells; 120 h): 10 to 100 nM

Compound: C[C@@H]1COCCN1c1cc(-c2ccc3c(c2)CCN3C(=O)c2ccncc2)c2cnn(-c3cc[nH]n3)c2n1 [Example 183]
- IC50 (SNU-601 cells; 120 h): 10 to 100 nM

Compound: CC1CCCN(c2cc(F)c(-c3cc(N4CCOC[C@H]4C)nc4c3cnn4-c3cc[nH]n3)c(F)c2)C1=O (stereo partly drawn) [Example 241]
- IC50 (ATR enzyme): ≤ 10 nM
- IC50 (SNU-601 cells; 120 h): 10 to 100 nM

Compound: C[C@@H]1COCCN1c1cc(-c2ccc(N3CCCCC3=O)c(C#N)c2)c2cnn(-c3cc[nH]n3)c2n1 [Example 169]
- IC50 (SNU-601 cells; 120 h): 10 to 100 nM

Compound: C[C@@H]1COCCN1c1cc(-c2ccc(NC(=O)C3CCN(C)C3)cc2)c2cnn(-c3cc[nH]n3)c2n1 (stereo partly drawn) [Example 213]
- IC50 (SNU-601 cells; 120 h): 10 to 100 nM

Compound: C[C@@H]1COCCN1c1cc(-c2ccc(NC(=O)c3ccccc3)cc2)c2cnn(-c3cc[nH]n3)c2n1 [Example 163]
- IC50 (SNU-601 cells; 120 h): 10 to 100 nM

Compound: C[C@@H]1COCCN1c1cc(C#CC2CCCNC2)c2cnn(-c3ccn[nH]3)c2n1 (stereo partly drawn) [Example 209]
- IC50 (SNU-601 cells; 120 h): 10 to 100 nM

Compound: C[C@@H]1COCCN1c1cc(-c2cc(C#N)c(N3CCCCC3=O)cc2F)c2cnn(-c3cc[nH]n3)c2n1 [Example 259]
- IC50 (SNU-601 cells; 120 h): 10 to 100 nM

Compound: C[C@@H]1COCCN1c1cc(-c2ccc(-c3ccnn3C)cc2F)c2cnn(-c3cc[nH]n3)c2n1 [Example 258]
- IC50 (SNU-601 cells; 120 h): 10 to 100 nM

Compound: C[C@@H]1COCCN1c1cc(-c2ccc(N3CCCCCC3=O)cc2)c2cnn(-c3cc[nH]n3)c2n1 [Example 153]
- IC50 (SNU-601 cells; 120 h): 10 to 100 nM

Compound: CNC(=O)N(C)c1ccc(-c2cc(N3CCOC[C@H]3C)nc3c2cnn3-c2cc[nH]n2)cc1 [Example 215]
- IC50 (SNU-601 cells; 120 h): 10 to 100 nM

Compound: C[C@@H]1COCCN1c1cc(C#CC2(C#N)CCCNC2)c2cnn(-c3cc[nH]n3)c2n1 (stereo partly drawn) [Example 82]
- IC50 (SNU-601 cells): 10 to 100 nM

Compound: C[C@@H]1COCCN1c1cc(-c2ccc(N3CCCCC3=O)c(F)c2)c2cnn(-c3cc[nH]n3)c2n1 [Example 191]
- IC50 (SNU-601 cells; 120 h): 10 to 100 nM
